Converted amounts (≈) assume the structure as drawn.
Legend:
Format in all cases: functional
Pasteurella multocida [1] = experiment: Antibacterial activity against Pasteurella multocida by CLSI M7-A7 broth microdilution method
Streptococcus viridans [2] = experiment: Antibacterial activity against penicillin-susceptible Streptococcus viridans assessed as susceptible isolates by CLSI M7-A7 broth microdilution method
Streptococcus agalactiae [3] = experiment: Antibacterial activity against erythromycin-nonsusceptible Streptococcus agalactiae assessed as susceptible isolates by CLSI M7-A7 broth microdilution method
Streptococcus pneumoniae [4] = experiment: Antibacterial activity against penicillin-resistant Streptococcus pneumoniae assessed as resistant isolates by CLSI M7-A7 broth microdilution method
Streptococcus pyogenes [5] = experiment: Antibacterial activity against erythromycin-nonsusceptible Streptococcus pyogenes assessed as susceptible isolates by CLSI M7-A7 broth microdilution method
Streptococcus viridans [6] = experiment: Antibacterial activity against penicillin-susceptible Streptococcus viridans assessed as resistant isolates by CLSI M7-A7 broth microdilution method
Streptococcus viridans [7] = experiment: Antibacterial activity against penicillin-susceptible Streptococcus viridans by CLSI M7-A7 broth microdilution method
Staphylococcus aureus [8] = experiment: Antibacterial activity against coagulase-negative and oxacillin-resistant Staphylococcus aureus by CLSI M7-A7 broth microdilution method
Streptococcus pneumoniae [9] = experiment: Antibacterial activity against penicillin-resistant Streptococcus pneumoniae by CLSI M7-A7 broth microdilution method
Streptococcus pyogenes [10] = experiment: Antibacterial activity against erythromycin-susceptible Streptococcus pyogenes by CLSI M7-A7 broth microdilution method
Staphylococcus aureus [11] = experiment: Antibacterial activity against coagulase-negative and oxacillin-susceptible Staphylococcus aureus by CLSI M7-A7 broth microdilution method
Streptococcus pneumoniae [12] = experiment: Antibacterial activity against penicillin-susceptible Streptococcus pneumoniae by CLSI M7-A7 broth microdilution method
Staphylococcus aureus [13] = experiment: Antibacterial activity against methicillin-resistant Staphylococcus aureus assessed as resistant isolates by CLSI M7-A7 broth microdilution method
Streptococcus pneumoniae [14] = experiment: Antibacterial activity against penicillin-susceptible Streptococcus pneumoniae assessed as susceptible isolates by CLSI M7-A7 broth microdilution method
Pasteurella multocida [15] = experiment: Antibacterial activity against Pasteurella multocida assessed as resistant isolates by CLSI M7-A7 broth microdilution method
Staphylococcus aureus [16] = experiment: Antibacterial activity against methicillin-resistant Staphylococcus aureus by CLSI M7-A7 broth microdilution method
Streptococcus agalactiae [17] = experiment: Antibacterial activity against erythromycin-nonsusceptible Streptococcus agalactiae assessed as resistant isolates by CLSI M7-A7 broth microdilution method
Staphylococcus aureus [18] = experiment: Antibacterial activity against methicillin-susceptible Staphylococcus aureus by CLSI M7-A7 broth microdilution method
Enterococcus faecalis [19] = experiment: Antibacterial activity against vancomycin-resistant Enterococcus faecalis assessed as susceptible isolates by CLSI M7-A7 broth microdilution method
Staphylococcus aureus [20] = experiment: Antibacterial activity against methicillin-susceptible Staphylococcus aureus assessed as susceptible isolates by CLSI M7-A7 broth microdilution method
Streptococcus pneumoniae [21] = experiment: Antibacterial activity against penicillin-resistant Streptococcus pneumoniae assessed as susceptible isolates by CLSI M7-A7 broth microdilution method
Enterococcus faecalis [22] = experiment: Antibacterial activity against vancomycin-susceptible Enterococcus faecalis by CLSI M7-A7 broth microdilution method
Moraxella catarrhalis [23] = experiment: Antibacterial activity against beta lactamase-positive Moraxella catarrhalis by CLSI M7-A7 broth microdilution method
Streptococcus agalactiae [24] = experiment: Antibacterial activity against erythromycin-susceptible Streptococcus agalactiae by CLSI M7-A7 broth microdilution method
Streptococcus pyogenes [25] = experiment: Antibacterial activity against erythromycin-nonsusceptible Streptococcus pyogenes by CLSI M7-A7 broth microdilution method
Streptococcus pneumoniae [26] = experiment: Antibacterial activity against penicillin-susceptible Streptococcus pneumoniae assessed as resistant isolates by CLSI M7-A7 broth microdilution method
Streptococcus viridans [27] = experiment: Antibacterial activity against penicillin-nonsusceptible Streptococcus viridans assessed as susceptible isolates by CLSI M7-A7 broth microdilution method
Streptococcus viridans [28] = experiment: Antibacterial activity against penicillin-nonsusceptible Streptococcus viridans by CLSI M7-A7 broth microdilution method
Enterococcus faecalis [29] = experiment: Antibacterial activity against vancomycin-susceptible Enterococcus faecalis assessed as susceptible isolates by CLSI M7-A7 broth microdilution method
Moraxella catarrhalis [30] = experiment: Antibacterial activity against beta lactamase-positive Moraxella catarrhalis assessed as resistant isolates by CLSI M7-A7 broth microdilution method
Staphylococcus aureus [31] = experiment: Antibacterial activity against coagulase-negative and oxacillin-susceptible Staphylococcus aureus assessed as susceptible isolates by CLSI M7-A7 broth microdilution method
Staphylococcus aureus [32] = experiment: Antibacterial activity against methicillin-susceptible Staphylococcus aureus assessed as resistant isolates by CLSI M7-A7 broth microdilution method
Streptococcus pyogenes [33] = experiment: Antibacterial activity against erythromycin-nonsusceptible Streptococcus pyogenes assessed as resistant isolates by CLSI M7-A7 broth microdilution method
Streptococcus viridans [34] = experiment: Antibacterial activity against penicillin-nonsusceptible Streptococcus viridans assessed as resistant isolates by CLSI M7-A7 broth microdilution method
Staphylococcus aureus [35] = experiment: Antibacterial activity against coagulase-negative and oxacillin-resistant Staphylococcus aureus assessed as resistant isolates by CLSI M7-A7 broth microdilution method
Enterococcus faecalis [36] = experiment: Antibacterial activity against vancomycin-resistant Enterococcus faecalis by CLSI M7-A7 broth microdilution method
Streptococcus agalactiae [37] = experiment: Antibacterial activity against erythromycin-susceptible Streptococcus agalactiae assessed as susceptible isolates by CLSI M7-A7 broth microdilution method
Streptococcus agalactiae [38] = experiment: Antibacterial activity against erythromycin-nonsusceptible Streptococcus agalactiae by CLSI M7-A7 broth microdilution method
Staphylococcus aureus [39] = experiment: Antibacterial activity against coagulase-negative and oxacillin-susceptible Staphylococcus aureus assessed as resistant isolates by CLSI M7-A7 broth microdilution method
Moraxella catarrhalis [40] = experiment: Antibacterial activity against beta lactamase-positive Moraxella catarrhalis assessed as susceptible isolates by CLSI M7-A7 broth microdilution method
Staphylococcus aureus [41] = experiment: Antibacterial activity against methicillin-resistant Staphylococcus aureus assessed as susceptible isolates by CLSI M7-A7 broth microdilution method
Enterococcus faecium [42] = experiment: Antibacterial activity against vancomycin-resistant Enterococcus faecium by CLSI M7-A7 broth microdilution method
Enterococcus faecalis [43] = experiment: Antibacterial activity against vancomycin-susceptible Enterococcus faecalis assessed as resistant isolates by CLSI M7-A7 broth microdilution method
Enterococcus faecium [44] = experiment: Antibacterial activity against vancomycin-resistant Enterococcus faecium assessed as resistant isolates by CLSI M7-A7 broth microdilution method
Staphylococcus aureus [45] = experiment: Antibacterial activity against coagulase-negative and oxacillin-resistant Staphylococcus aureus assessed as susceptible isolates by CLSI M7-A7 broth microdilution method
Enterococcus faecium [46] = experiment: Antibacterial activity against vancomycin-resistant Enterococcus faecium assessed as susceptible isolates by CLSI M7-A7 broth microdilution method
Streptococcus pyogenes [47] = experiment: Antibacterial activity against erythromycin-susceptible Streptococcus pyogenes assessed as susceptible isolates by CLSI M7-A7 broth microdilution method
Pasteurella multocida [48] = experiment: Antibacterial activity against Pasteurella multocida assessed as susceptible isolates by CLSI M7-A7 broth microdilution method
Enterococcus faecalis [49] = experiment: Antibacterial activity against vancomycin-resistant Enterococcus faecalis assessed as resistant isolates by CLSI M7-A7 broth microdilution method

Compound: CC[C@H]1OC(=O)[C@H](C)[C@@H](O[C@H]2C[C@@](C)(OC)[C@@H](O)[C@H](C)O2)[C@H](C)[C@@H](O[C@@H]2O[C@H](C)C[C@H](N(C)C)[C@H]2O)[C@](C)(O)C[C@@H](C)C(=O)[C@H](C)[C@@H](O)[C@]1(C)O [ERYTHROMYCIN]
- MIC50 (Pasteurella multocida [1]): 2 µg/mL (≈ 2.73 µM)
- MIC90 (Pasteurella multocida [1]): 4 µg/mL (≈ 5.45 µM)
- Activity (Streptococcus viridans [2]): 58.6%
- Activity (Streptococcus agalactiae [3]): 0%
- Activity (Streptococcus pneumoniae [4]): 71.6%
- Activity (Streptococcus pyogenes [5]): 0%
- Activity (Streptococcus viridans [6]): 40.2%
- MIC50 (Streptococcus viridans [7]): 0.06 µg/mL (≈ 0.0818 µM)
- MIC90 (Streptococcus viridans [7]): 4 µg/mL (≈ 5.45 µM)
- MIC50 (Staphylococcus aureus [8]): > 8 µg/mL
- MIC50 (Streptococcus pneumoniae [9]): 8 µg/mL (≈ 10.9 µM)
- MIC90 (Streptococcus pneumoniae [9]): > 16 µg/mL
- MIC50 (Streptococcus pyogenes [10]): 0.03 µg/mL (≈ 0.0409 µM)
- MIC90 (Streptococcus pyogenes [10]): 0.06 µg/mL (≈ 0.0818 µM)
- MIC50 (Staphylococcus aureus [11]): 1 µg/mL (≈ 1.36 µM)
- MIC90 (Staphylococcus aureus [11]): > 8 µg/mL
- MIC50 (Streptococcus pneumoniae [12]): 0.03 µg/mL (≈ 0.0409 µM)
- MIC90 (Streptococcus pneumoniae [12]): 0.5 µg/mL (≈ 0.681 µM)
- Activity (Staphylococcus aureus [13]): 94.4%
- Activity (Streptococcus pneumoniae [14]): 89.1%
- Activity (Pasteurella multocida [15]): 77.3%
- MIC50 (Staphylococcus aureus [16]): > 8 µg/mL
- Activity (Streptococcus agalactiae [17]): 92.9%
- MIC50 (Staphylococcus aureus [18]): 0.5 µg/mL (≈ 0.681 µM)
- MIC90 (Staphylococcus aureus [18]): > 8 µg/mL
- Activity (Enterococcus faecalis [19]): 0%
- Activity (Staphylococcus aureus [20]): 65.2%
- Activity (Streptococcus pneumoniae [21]): 28.4%
- MIC50 (Enterococcus faecalis [22]): > 8 µg/mL
- MIC90 (Enterococcus faecalis [22]): > 8 µg/mL
- MIC (Moraxella catarrhalis [23]): ≤ 0.12 µg/mL
- MIC50 (Moraxella catarrhalis [23]): ≤ 0.12 µg/mL
- MIC90 (Moraxella catarrhalis [23]): ≤ 0.12 µg/mL
- MIC50 (Streptococcus agalactiae [24]): 0.03 µg/mL (≈ 0.0409 µM)
- MIC90 (Streptococcus agalactiae [24]): 0.06 µg/mL (≈ 0.0818 µM)
- MIC50 (Streptococcus pyogenes [25]): 8 µg/mL (≈ 10.9 µM)
- MIC90 (Streptococcus pyogenes [25]): > 16 µg/mL
- Activity (Streptococcus pneumoniae [26]): 9.9%
- Activity (Streptococcus viridans [27]): 21.4%
- MIC50 (Streptococcus viridans [28]): 2 µg/mL (≈ 2.73 µM)
- MIC90 (Streptococcus viridans [28]): > 16 µg/mL
- Activity (Enterococcus faecalis [29]): 10.2%
- Activity (Moraxella catarrhalis [30]): 0%
- Activity (Staphylococcus aureus [31]): 49.8%
- Activity (Staphylococcus aureus [32]): 32.5%
- Activity (Streptococcus pyogenes [33]): 80%
- Activity (Streptococcus viridans [34]): 71.4%
- Activity (Staphylococcus aureus [35]): 81.3%
- MIC (Enterococcus faecalis [36]): > 1 µg/mL
- Activity (Streptococcus agalactiae [37]): 100%
- MIC50 (Streptococcus agalactiae [38]): 16 µg/mL (≈ 21.8 µM)
- MIC90 (Streptococcus agalactiae [38]): > 16 µg/mL
- Activity (Staphylococcus aureus [39]): 49.3%
- Activity (Moraxella catarrhalis [40]): 100%
- Activity (Staphylococcus aureus [41]): 4.5%
- MIC50 (Enterococcus faecium [42]): > 8 µg/mL
- MIC90 (Enterococcus faecium [42]): > 8 µg/mL
- Activity (Enterococcus faecalis [43]): 59.9%
- Activity (Enterococcus faecium [44]): 92.3%
- Activity (Staphylococcus aureus [45]): 18.4%
- Activity (Enterococcus faecium [46]): 0%
- Activity (Streptococcus pyogenes [47]): 100%
- Activity (Pasteurella multocida [48]): 4.5%
- Activity (Enterococcus faecalis [49]): 96%
